# PubChem BioAssay AID2060491 (Molecular Pharmacology Branch, DTP, NCI, 2025)
# Tested on: 857933-349-R-J2-PDC complex spheroids, viability
# Test: Anticancer human tumor 857933-349-R-J2-PDC patient-derived colon adenocarcinoma cell line growth inhibition [GQUAD]
# Conditions: for IC50: curve of first compound; for viability, T/C: stronger effect = lower value
# Excerpt: DNA G-quadruplex Stabilizer Agents in Combinations in Complex Spheroids
# A high-throughput screen of multi-cell type tumor spheroids was designed to identify active combinations of DNA G-quadruplex stabilizer agents and targeted small molecules. Complex spheroids include a stromal component modeled by human endothelial cells (HUVEC) and fibroblasts modeled by human mesenchymal stem cells (MSCs). The concentration ranges selected for each drug and investigational agent were based upon clinically achievable concentrations if the clinical Cmax of the agent was known.
# Compounds. The drugs and investigational agents: pidnarulex (CX-5461; NSC782164), APTO-253 (NSC789042), BRACO-19 (NSC847499), peposertib (NSC802822), ceralasertib (NSC780249), elimusertib (NSC800525), camonsertib (NSC841442), AZD-1390 (NSC803789), olaparib (NSC753686), talazoparib (NSC767125), ART-558 (NSC835418), sotorasib (NSC818433), MRTX-1133 (NSC836407), SN-38 (NSC673596), topotecan (NSC609699), etoposide (NSC141540), doxorubicin (NSC123127), gemcitabine (NSC613327), 5-fluorouracil (NSC19893), paclitaxel (NSC125973), vemurafenib (NSC761431), panobinostat (NSC761190), R-306465 (JNJ-16241199; NSC773264), adavosertib (NSC754352), TP-3654 (NSC805149), carboplatin (NSC241240), KSQ-4279 (NSC840948), and staurosporine (NSC755774) were obtained from the National Cancer Institute (NCI) Developmental Therapeutics Program Chemical Repository (34). The FDA-approved anticancer drug set is available from the NCI Developmental Therapeutics Program. […] The stock solutions were prepared in dimethyl sulfoxide (DMSO, Sigma-Aldrich, St. Louis, MO, cat. D2650) at 800-fold the tested concentration and stored at -70 degrees C prior to their use. All drugs and investigational agents were tested over a range starting from a high concentration at or near the clinical Cmax and decreasing in half-log increments. If the clinical Cmax for an agent had not been determined, the highest concentration tested was 10 microM.
# 2.3 Cell Culture. All cells were maintained in an incubator at 37 degrees C and 5% CO2 with 95% humidity. The PDC lines were cultured according to standard operating procedures established by the NCI PDMR. All PDCs were thawed and cultured in Matrigel-coated flasks prepared with a working solution of 1X Ham's F-12 nutrient mix, without supplementation (Invitrogen, cat. 11765054), 100 U/mL penicillin-streptomycin (Invitrogen, cat. 15140122), and 2.5% Matrigel (Corning Inc., cat. 354248) for the first three passages. The 857933-349-R-J2-PDC line was cultured in 6C/Colon 1B media, which includes advanced DMEM/F-12 (Thermo Fisher Scientific, cat. 12634028), 10 mM HEPES (Thermo Fisher Scientific, cat. 15630080), 1X GlutaMAX supplement (Thermo Fisher Scientific, cat. 35050061), 0.1 mg/mL primocin (InvivoGen, cat. ant-pm-2), 10% defined fetal bovine serum, heat inactivated (HyClone Laboratories Inc., cat. SH30070.03HI), 50% L-WRN conditioned media (ATCC, cat. CRL-3276), 1.25 mM N-Acetyl-L-cysteine (Sigma-Aldrich, cat. A9165), 10 mM nicotinamide (Sigma-Aldrich, cat. N0636), 1X B-27 supplement (Thermo Fisher Scientific, cat. 17504044), 1X N-2 supplement (Thermo Fisher Scientific, cat. 17502048), 10 microM Y-27632 dihydrochloride (Tocris Bioscience, cat. 1254), and 50 ng/mL human EGF recombinant protein (Thermo Fisher Scientific, cat. PHG0311). The 485176-168-R4-J1-PDC line was cultured in Panc media, which includes all 6C/Colon 1B media components plus 100 ng/mL human FGF-10 (Thermo Fisher Scientific, cat. 100-26), 500 nM SB-431542 (Selleckchem, cat. S1067), and gastrin (Tocris, cat. 3006).
# […]
# [1] = second compound 0.0316 µM, first compound 0.0316 µM
# [2] = second compound 0.0316 µM, first compound 0.1 µM
# [3] = second compound 0.0316 µM, first compound 0.316 µM
# [4] = second compound 0.0316 µM, first compound 1 µM
# [5] = second compound 0.0316 µM, first compound 3.16 µM
# [6] = second compound 0.0316 µM, first compound 10 µM
# [7] = second compound 0.1 µM, first compound 0.0316 µM
# [8] = second compound 0.1 µM, first compound 0.1 µM
# [9] = second compound 0.1 µM, first compound 0.316 µM
# [10] = second compound 0.1 µM, first compound 1 µM
# [11] = second compound 0.1 µM, first compound 3.16 µM
# [12] = second compound 0.1 µM, first compound 10 µM
# [13] = second compound 0.316 µM, first compound 0.0316 µM
# [14] = second compound 0.316 µM, first compound 0.1 µM
# [15] = second compound 0.316 µM, first compound 0.316 µM
# [16] = second compound 0.316 µM, first compound 1 µM
# [17] = second compound 0.316 µM, first compound 3.16 µM
# [18] = second compound 0.316 µM, first compound 10 µM
# [19] = second compound 1 µM, first compound 0.0316 µM
# [20] = second compound 1 µM, first compound 0.1 µM
# [21] = second compound 1 µM, first compound 0.316 µM
# [22] = second compound 1 µM, first compound 1 µM
# [23] = second compound 1 µM, first compound 3.16 µM
# [24] = second compound 1 µM, first compound 10 µM
# [25] = second compound 3.16 µM, first compound 0.0316 µM
# [26] = second compound 3.16 µM, first compound 0.1 µM
# [27] = second compound 3.16 µM, first compound 0.316 µM
# [28] = second compound 3.16 µM, first compound 1 µM
# [29] = second compound 3.16 µM, first compound 3.16 µM
# [30] = second compound 3.16 µM, first compound 10 µM
# [31] = second compound 10 µM, first compound 0.0316 µM
# [32] = second compound 10 µM, first compound 0.1 µM
# [33] = second compound 10 µM, first compound 0.316 µM
# [34] = second compound 10 µM, first compound 1 µM
# [35] = second compound 10 µM, first compound 3.16 µM
# [36] = second compound 10 µM, first compound 10 µM
# 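Note: spheroids exposed to compounds for one week before readout.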
# 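Throughout, for viability, T/C: percent viability relative to vehicle DMSO wells taken as 100%.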
smiles,measurement,setting,value
CC1COCCN1c1cc(C2(S(C)(=N)=O)CC2)nc(-c2ccnc3[nH]ccc23)n1 (centres undefined) + Cc1cnc(CNC(=O)c2c(=O)c3ccc(N4CCCN(C)CC4)nc3n3c2sc2ccccc23)cn1,IC50,second compound 0.0316 µM,0.8 µM
same,IC50,second compound 0.1 µM,0.327 µM
same,IC50,second compound 0.316 µM,< 0.0316 µM
same,IC50,second compound 1 µM,< 0.0316 µM
same,IC50,second compound 3.16 µM,< 0.0316 µM
same,IC50,second compound 10 µM,< 0.0316 µM
same,"viability, T/C",[1],82%
same,"viability, T/C",[2],75.7%
same,"viability, T/C",[3],72.3%
same,"viability, T/C",[4],43.8%
same,"viability, T/C",[5],42.1%
same,"viability, T/C",[6],31.9%
same,"viability, T/C",[7],56.5%
same,"viability, T/C",[8],68.6%
same,"viability, T/C",[9],45.8%
same,"viability, T/C",[10],39.1%
same,"viability, T/C",[11],34.4%
same,"viability, T/C",[12],26.7%
same,"viability, T/C",[13],26.8%
same,"viability, T/C",[14],31.2%
same,"viability, T/C",[15],20.8%
same,"viability, T/C",[16],13.4%
same,"viability, T/C",[17],10.6%
same,"viability, T/C",[18],10%
same,"viability, T/C",[19],5.52%
same,"viability, T/C",[20],6.04%
same,"viability, T/C",[21],4.55%
same,"viability, T/C",[22],3.48%
same,"viability, T/C",[23],3.6%
same,"viability, T/C",[24],4.17%
same,"viability, T/C",[25],2.4%
same,"viability, T/C",[26],2.9%
same,"viability, T/C",[27],2.49%
same,"viability, T/C",[28],1.88%
same,"viability, T/C",[29],1.99%
same,"viability, T/C",[30],2.82%
same,"viability, T/C",[31],1.11%
same,"viability, T/C",[32],1.51%
same,"viability, T/C",[33],1.22%
same,"viability, T/C",[34],1.75%
same,"viability, T/C",[35],1.64%
same,"viability, T/C",[36],2.19%
CC1COCCN1c1cc(C2(S(C)(=N)=O)CC2)nc(-c2ccnc3[nH]ccc23)n1 (centres undefined) + Cc1[nH]c2ccc(F)cc2c1-c1nc2c3cccnc3c3ncccc3c2[nH]1,IC50,second compound 0.0316 µM,6.7 µM
same,IC50,second compound 0.1 µM,6.02 µM
same,IC50,second compound 0.316 µM,6.09 µM
same,IC50,second compound 1 µM,7.1 µM
same,IC50,second compound 3.16 µM,7.16 µM
same,IC50,second compound 10 µM,6.45 µM
same,"viability, T/C",[1],101%
same,"viability, T/C",[2],103%
same,"viability, T/C",[3],88.5%
same,"viability, T/C",[4],75.4%
same,"viability, T/C",[5],59.6%
same,"viability, T/C",[6],45%
same,"viability, T/C",[7],99.9%
same,"viability, T/C",[8],101%
same,"viability, T/C",[9],93.3%
same,"viability, T/C",[10],80.9%
same,"viability, T/C",[11],58.8%
same,"viability, T/C",[12],43%
same,"viability, T/C",[13],106%
same,"viability, T/C",[14],108%
same,"viability, T/C",[15],90.2%
same,"viability, T/C",[16],79.5%
same,"viability, T/C",[17],58.9%
same,"viability, T/C",[18],43.1%
same,"viability, T/C",[19],103%
same,"viability, T/C",[20],98.2%
same,"viability, T/C",[21],91.9%
same,"viability, T/C",[22],83.6%
same,"viability, T/C",[23],59.7%
same,"viability, T/C",[24],45.7%
same,"viability, T/C",[25],108%
same,"viability, T/C",[26],96.3%
same,"viability, T/C",[27],81.2%
same,"viability, T/C",[28],86.3%
same,"viability, T/C",[29],60.4%
same,"viability, T/C",[30],43.6%
same,"viability, T/C",[31],104%
same,"viability, T/C",[32],98.5%
same,"viability, T/C",[33],92.5%
same,"viability, T/C",[34],90.9%
same,"viability, T/C",[35],62.3%
same,"viability, T/C",[36],42.1%
